The record followed here is US20080312150A1 (priority 1999, published 2008).

Test [1] concerns LNCaP cells. Kind of test: PDT using ALA-induced PpIX, cell survival (MTT conversion assay). Type of test: cell-based, human. Particulars: for light dose to reduce cell survival by 50% (MTT): 514 nm light; for survival after PDT: versus no pretreatment. The procedure: ALA-induced PpIX for PDT of LNCaP cells with (circles) or without (triangles) pretreatment for 72 hours with 10^−7 M R1881. The cells were incubated with ALA concentrations from 0.1 to 1.0 mM for four hours prior to exposure to 10 J/cm^2 of 514 nm light.
PDT using ALA-induced PpIX in LNCaP cells with (circles) or without (triangles) pretreatment for 72 hours with 10^−7 M R1881. The cells were incubated with 0.3 mM ALA for four hours prior to exposure to 3-20 J/cm^2 of 514 nm light.
(§1) LNCaP (human prostate cancer) cells were treated with methotrexate (1 μg/ml) for 72 hours. The cells were then incubated with 0.3 mM ALA for 4 hours. After ALA treatment, cells were either used for quantification of PpIX or exposed to 514 nm light. […] This enhancement of PDT by chemotherapy can also be seen when long-term survival was assessed by colony formation assay (FIG. 6B). Here, the 50% levels are reached at 25 J/cm2, compared to 2 J/cm2. […] Chemotherapeutic effect was also confirmed using cyclophosphamide.
On the technique in general: Formazan colour is commonly taken as a measure of viable cells.

In test [2] the test system is LNCaP (human prostate cancer) cells. Kind of test: PDT long-term survival by colony formation assay. Type of test: cell-based. The note with it: 514 nm light. The procedure:
as §1

Test [3] relates to human skin. The test is described as follows: Fluorescence micrograph of ALA-induced PpIX in human skin. The note with it: human skin incubated in ALA for 4 hours.
For test [4], the system named is LNCaP human prostate cancer cells. The test is described as follows: ALA-induced PpIX formation by LNCaP cells. Type of test: cell-based. The procedure: ALA-induced PpIX formation by LNCaP human prostate cancer cells. The cells were incubated for four hours with 0.3 mM ALA after 72 hours of pretreatment with the synthetic androgen R1881 at concentrations between 10^−10 to 10^−6.
as §1

Test [5] has as its system LNCaP cells. The test is described as follows: Confocal laser scanning microscopy of PPIX fluorescence in living cells. Type of test: cell-based, human. Particulars: 10^−7 M R1881 72 hours, then 0.3 mM ALA 4 hours; excitation 488 nm. As to the method: LNCaP cells were pretreated with 10^−7 M R1881 for 72 hours or with vehicle, and then incubated with 0.3 mM ALA. At 4 hours the living cells were imaged using the confocal laser scanning microscope. Excitation was at 488 nm and both green (auto fluorescence) and red (PPIX) fluorescence was recorded and combined.

In test [6] the test system is LNCaP tumors. The test is described as follows: PpIX formation in LNCaP tumors in vivo (confocal imaging of frozen sections). On the set-up: species or system SCID mice. The note with it: 400 pg/kg R1881, after 4 days 250 mg/kg ALA i.p., tumors removed at 4 hours; 633 nm excitation. The procedure:
SCID mice bearing LNCaP tumors were pretreated with a high dose of 400 pg/kg R1881 and after 4 days received 250 mg/kg ALA i.p. At 4 hours, the mice were sacrificed and the tumors removed. Frozen sections of the tumors were imaged on the confocal laser scanning microscope. Using 633 nm excitation, the sections of tumors from an untreated mouse (FIG. 5A) and an R1881-pretreated mouse (FIG. 5B) were imaged at the same instrument parameters.

For test [7] the following is noted: cell line and regimen not stated. As to the method: as §1
Setting [8] is: PDT alone: 0.3 mM ALA 4 hours, no methotrexate.
[9] abbreviates: combined regimen: methotrexate 1 μg/ml 72 hours, 0.3 mM ALA 4 hours.

For the compound `NCC(=O)CCC(=O)O` [ALA], the “light dose to reduce cell survival by 50% (MTT)” value in test [1] (setting [8]) was 20 J/cm2. Besides, the “light dose for 50% level (colony formation)” value in test [2] (setting [8]) was found to be 25 J/cm2. In addition, the “ALA-induced PpIX fluorescence signal across epidermal layers” value in test [3] is listed as “increase of fluorescence signal from bottom to top epidermal layers”.
As to `C[C@]1(O)CC[C@H]2[C@@H]3CCC4=CC(=O)CCC4=C3C=C[C@@]21C` [R1881], in test [4] (72 hours pretreatment with R1881 10^−10 to 10^−6, then 0.3 mM ALA four hours), the “ALA-induced PpIX formation (% of cells without androgen treatment)” value is “significant increase”. Also, the “survival after PDT” value in test [1] (72 hours 10^−7 M R1881, 0.3 mM ALA four hours, 3-20 J/cm^2 of 514 nm light) was “Reduced survival”; in test [1] (72 hours 10^−7 M R1881, ALA 0.1 to 1.0 mM four hours, 10 J/cm^2 of 514 nm light) it was “Reduced survival”. In test [5], the “PPIX fluorescence in cells” value is reported as “strong PPIX fluorescence in almost all cells”. The “PpIX formation in tumors” value in test [6] is “increased PpIX formation”.
For the compound `O=P1(N(CCCl)CCCl)NCCCO1` (stereo not drawn) [cyclophosphamide], the “chemotherapeutic effect (enhancement of PDT by pretreatment)” value in test [7] is “confirmed”.
For the compound `CN(Cc1cnc2nc(N)nc(N)c2n1)c1ccc(C(=O)N[C@@H](CCC(=O)O)C(=O)O)cc1` [methotrexate], the “increase in PpIX levels” value in test [4] (methotrexate 1 μg/ml 72 hours, then 0.3 mM ALA 4 hours, mean+/−standard deviation) amounted to 4.1±1.1 fold. In test [1] (setting [9]), the “light dose to reduce cell survival by 50% (MTT)” value stood at 2 J/cm2. The “light dose for 50% level (colony formation)” value in test [2] (setting [9]) is 2 J/cm2.
